Test results reported in ChEMBL document CHEMBL4673389 (ACS Med Chem Lett, 2021).
Active and inactive are the calls of the source. The calls are words filed in the database; no cut-off is given here.

Molecular target: T1, Cereblon isoform 4 (Magnetospirillum gryphiswaldense, UniProt A4TVL0)
T1 sequence (A4TVL0 whole entry): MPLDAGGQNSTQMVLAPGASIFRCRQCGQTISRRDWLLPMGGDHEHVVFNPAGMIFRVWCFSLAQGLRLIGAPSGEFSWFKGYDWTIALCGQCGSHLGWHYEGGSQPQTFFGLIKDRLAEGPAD
Assay: Binding affinity to Magnetospirillum gryphiswaldense cereblon isoform 4 by measuring baseline corrected normalized fluorescence by MST based assay

Row | SMILES | IC50 [µM] | Ki [µM]
1 | O=C1CCC(=O)N1 [SUCCINIMIDE] | 3.53 | 0.642

Molecular target: T2, Protein cereblon (Homo sapiens, UniProt Q96SW2)
Assay: Competitive binding affinity to human CRBN-thalidomide binding domain expressed in Escherichia coli by FRET assay

Row | SMILES | Ki [µM]
2 | C[S+](C)[O-] [DIMETHYL SULFOXIDE] | 137

Molecular target: T2, Protein cereblon
Assay: Binding affinity to human CRBN-thalidomide binding domain expressed in Escherichia coli by measuring baseline corrected normalized fluorescence by MST based assay

Row | SMILES | IC50 [µM] | Ki [µM] | Activity
3 | O=c1ccn([C@@H]2O[C@H](COP(=O)(O)O)[C@@H](O)[C@H]2O)c(=O)[nH]1 | > 5000 |  | 
4 | O=C1CNCN1 | > 5000 |  | 
5 | NN1CC(=O)NC1=O | 447 | 229 | 
6 | CN1CC(=O)NC1=O | 137 | 67.8 | 
7 | Nn1ccc(=O)[nH]c1=O | 84.8 | 40.7 | 
8 | O=C1CN(/N=C/c2ccc([N+](=O)[O-])o2)C(=O)N1 |  |  | inactive
9 | O=C1CN(/N=C/c2ccccc2)C(=O)N1 |  |  | inactive
10 | O=C1CN(/N=C/c2ccccc2[N+](=O)[O-])C(=O)N1 |  |  | inactive
11 | O=C1CN(/N=C/c2ncc(-c3ccc(Br)cc3)o2)C(=O)N1 |  |  | inactive
12 | COc1c(-c2ccc3cc(NS(C)(=O)=O)ccc3c2)cc(-n2ccc(=O)[nH]c2=O)cc1C(C)(C)C [DASABUVIR] | 15.6 | 4.71 | 
13 | O=C1CN(/N=C/C=C/c2ccc([N+](=O)[O-])o2)C(=O)N1 [FURAZIDIN] | > 1000 |  | 
14 | O=C1CNC(=O)N1 [HYDANTOIN] | 421 | 216 | 
15 | COc1ccc(C2CNC(=O)C2)cc1OC1CCCC1 (stereo unspecified) [ROLIPRAM] | 202 | 102 | 
16 | CC(C)OC(=O)[C@H](C)N[P@](=O)(OC[C@H]1O[C@@H](n2ccc(=O)[nH]c2=O)[C@](C)(F)[C@@H]1O)Oc1ccccc1 [SOFOSBUVIR] | > 1000 |  | 
17 | O=C1CCC(=O)N1 [SUCCINIMIDE] | 22.3 | 8.19 | 
18 | O=C1CNC(=S)N1 [THIOHYDANTOIN] | 332 | 169 | 
19 | O=c1cc[nH]c(=O)[nH]1 [URACIL] | 415 | 212 | 
20 | O=c1ccn([C@@H]2O[C@H](CO)[C@@H](O)[C@H]2O)c(=O)[nH]1 [URIDINE] | 757 | 390 | 
